What all share (assay): NCI-60 cell line screen, 48 h
The subject of assay [1] is RPMI-8226.
Assay [2] has as its system NCI/ADR-RES.
The test system of assay [3] is U-251.
The subject of assay [4] is SK-OV-3.
Assay [5] deals with M14.
Assay [6] concerns SW-620.
Assay [7] concerns SN12C.
Assay [8] relates to DU-145.
Assay [9] deals with MDA-N.
For assay [10], the system named is CAKI-1.
Assay [11] deals with SF-295.
The test system of assay [12] is UACC-62.
In assay [13] the test system is 786-0.
Assay [14] has as its system OVCAR-8.
Assay [15] relates to NCI-H460.
Assay [16] has as its system EKVX.
Assay [17] relates to HOP-92.
For assay [18], the system named is SK-MEL-2.
The subject of assay [19] is MDA-MB-435.
In assay [20] the test system is NCI-H226.

Consider ten molecules from ChEMBL document CHEMBL1201862, “PubChem BioAssay data set” (2004).

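Results reflect a 48-hour exposure of cells in 96-well plates to compound at five concentrations. GI50: concentration for 50% inhibition of growth.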 Activity calls are given as the source filed them. Rule as the data show it: active = GI50 up to about 1.1 µM and inactive = higher.

For the molecule `C=C1CCc2ccccc2C1=O`, the GI50 in assay [1], in assay [2], in assay [3], in [4], in assay [5] and in [6] was > 100 µM (inactive) each time. Moreover, the GI50 in assay [7] is > 100 µM (inactive); in assay [8] it was > 100 µM (inactive); in assay [9] it was 43.1 µM (inactive); in [10], > 100 µM (inactive); in [11], 51.3 µM (inactive); in assay [12] it was > 100 µM (inactive). Besides, the GI50 in assay [13], in assay [14], in assay [15], in assay [16], in [17] and in assay [18] was > 100 µM (inactive) throughout. Also, the GI50 was 29.3 µM (inactive) in assay [19] and > 100 µM (inactive) in assay [20].
In the case of `Cc1[nH]c2ccccc2c1-c1cc(-c2cc(-c3c(C)[nH]c4ccccc34)on2)no1`, the GI50 in assay [1] was 85.1 µM (inactive); in assay [2] it was > 100 µM (inactive); in [3] it was 77.8 µM (inactive); in assay [4], 77.6 µM (inactive); in assay [5] it was 37.7 µM (inactive); in assay [6], 53.2 µM (inactive). Moreover, the GI50 in [7] is > 100 µM (inactive); in assay [8], > 100 µM (inactive); in [9], 21 µM (inactive); in [10] it was 76.2 µM (inactive); in [11] it was 40.2 µM (inactive); in [12] it was 51.4 µM (inactive). In addition, the GI50 in assay [13] is 92 µM (inactive); in assay [14] it was > 100 µM (inactive); in [15], 42 µM (inactive); in assay [16], 54.7 µM (inactive); in [17] it was 83.8 µM (inactive); in assay [18], > 100 µM (inactive). For the same molecule, the figures for the GI50 in [19] and in assay [20] were 25.8 µM (inactive) and 98.4 µM (inactive), respectively.
On to `COc1cc2oc(=O)cc(C)c2cc1[N+](=O)[O-]`, for which the GI50 was 27 µM (inactive) in assay [1]; 28.4 µM (inactive) in [2]; 37.4 µM (inactive) in [3]; 84.1 µM (inactive) in assay [4]; 16.7 µM (inactive) in assay [5]; 23 µM (inactive) in [6]. For the same molecule, the GI50 in assay [7] was 16.4 µM (inactive); in assay [8], 33.1 µM (inactive); in assay [9], 14.7 µM (inactive); in assay [10], 13.8 µM (inactive); in [11] it was 51.4 µM (inactive); in assay [12], 16.1 µM (inactive). Besides, the GI50 was 17.5 µM (inactive) in [13]; 18.8 µM (inactive) in assay [14]; 46.3 µM (inactive) in assay [15]; > 59.4 µM (inactive) in [16]; 17.1 µM (inactive) in assay [17]; 12.4 µM (inactive) in [18]. Moreover, the GI50 in [19] was 20.1 µM (inactive); in assay [20], 8.77 µM (inactive).
Turning to `CC1=CC(=O)c2c(O)cccc2C1=O` [PLUMBAGIN], the GI50 in assay [1] was 0.891 µM (active); in assay [2], 1.76 µM (inactive); in assay [3], 6.17 µM (inactive); in [4], 14.1 µM (inactive); in assay [5], 1.86 µM (inactive); in assay [6], 1.91 µM (inactive). In addition, the GI50 in [7] was 1.94 µM (inactive); in [8], 1.65 µM (inactive); in [9], 1.72 µM (inactive); in [10], 1.83 µM (inactive); in assay [11] it was 11.5 µM (inactive); in [12] it was 1.94 µM (inactive). Moreover, the GI50 in assay [13] is 1.65 µM (inactive); in assay [14], 1.69 µM (inactive); in [15] it was 3.64 µM (inactive); in [16] it was 1.6 µM (inactive); in assay [17] it was 0.465 µM (active); in assay [18] it was 1.85 µM (inactive). Further, the GI50 in assay [19] is 1.73 µM (inactive); in [20], 6.55 µM (inactive).
For the molecule `Cc1cn(CCCCCCOC(=O)NC(CCCNC(=N)N)C(=O)O)c(=O)[nH]c1=O` (stereo not given), the GI50 in assay [1], in [2], in [3], in [4], in assay [5] and in [6] was > 100 µM (inactive) throughout. The GI50 in assay [7], in assay [8], in [9], in assay [10], in assay [11] and in assay [12] was > 100 µM (inactive) each time. In addition, the GI50 in [13], in assay [14], in [15], in assay [16], in [17] and in assay [18] was > 100 µM (inactive) each time. The GI50 in [19] and in assay [20] was > 100 µM (inactive) throughout.
As to `COc1ccc(-c2cc3c(nn2)-c2ccccc2C3=O)cc1`, the GI50 in [1], in assay [2], in assay [3], in assay [4], in assay [5] and in assay [6] was > 10 µM (inactive) in each case. In addition, the GI50 in [7], in [8], in assay [9], in assay [10], in assay [11] and in [12] was > 10 µM (inactive) throughout. Further, the GI50 in assay [13], in assay [14], in [15], in [16], in assay [17] and in assay [18] was > 10 µM (inactive) throughout. Besides, the GI50 in [19] and in [20] was > 10 µM (inactive) each time.
Take `CCOc1cc(/C=N\N(C)C)cc(/C=N\N(C)C)c1O`: the GI50 is 31.6 µM (inactive) in [1]; 35.8 µM (inactive) in [2]; 33.7 µM (inactive) in [3]; 29.4 µM (inactive) in assay [4]; 40.2 µM (inactive) in assay [5]; 53.3 µM (inactive) in [6]. For the same molecule, the GI50 is 54 µM (inactive) in assay [7]; > 100 µM (inactive) in [8]; 32.8 µM (inactive) in assay [9]; 18.3 µM (inactive) in [10]; 41.3 µM (inactive) in assay [11]; 69 µM (inactive) in [12]. The GI50 in assay [13] was 42.7 µM (inactive); in assay [14] it was 21.6 µM (inactive); in assay [15] it was 30.1 µM (inactive); in assay [16] it was 71.6 µM (inactive); in [17] it was 7.66 µM (inactive); in assay [18], 28.2 µM (inactive). Further, the values for the GI50 in assay [19] and in [20] were 32.5 µM (inactive) and 38.3 µM (inactive), respectively.
Regarding `CC(=O)OC1(C)C(=O)OC/C2=C/CN(C)CCC(OC(=O)C(O)(C(C)Cl)CC1C)C2=O.c1ccccc1` (stereo not given), the GI50 in [1], in assay [2], in assay [3], in assay [4], in assay [5] and in assay [6] was > 100 µM (inactive) in each case. The GI50 in assay [7], in assay [8], in assay [9], in [10], in assay [11] and in [12] was > 100 µM (inactive) throughout. The GI50 in [13], in [14], in assay [15], in [16], in [17] and in assay [18] was > 100 µM (inactive) throughout. Moreover, the GI50 in assay [19] and in assay [20] was > 100 µM (inactive) in each case.
In the case of `O=C(CCc1ccccc1)NCCc1ccc(O)c(O)c1`, the GI50 in assay [1] was 2.54 µM (inactive); in assay [2] it was 28.4 µM (inactive); in [3], 41.2 µM (inactive); in assay [4] it was 27.2 µM (inactive); in assay [5], > 54.8 µM (inactive); in assay [6] it was > 100 µM (inactive). In addition, the GI50 was 36 µM (inactive) in assay [7]; > 63.2 µM (inactive) in assay [8]; 14.8 µM (inactive) in [9]; 4.99 µM (inactive) in assay [10]; > 53.3 µM (inactive) in [11]; 34.3 µM (inactive) in [12]. Besides, the GI50 in assay [13] was 21.5 µM (inactive); in [14] it was 30.3 µM (inactive); in assay [15], 46.9 µM (inactive); in assay [16] it was 62.4 µM (inactive); in [17], 17.4 µM (inactive); in assay [18], 22 µM (inactive). In addition, the GI50 was 15.6 µM (inactive) in assay [19] and 21.2 µM (inactive) in assay [20].
Consider `COc1cc2c(cc1OCCCCN1C(=O)c3cccc4cccc(c34)C1=O)N=C[C@@H]1CCCN1C2=O`, for which the GI50 in assay [1] was 2.69 µM (inactive); in assay [2], 6.52 µM (inactive); in assay [3], 3.24 µM (inactive); in [4], 9.48 µM (inactive); in [5], 5.56 µM (inactive); in assay [6] it was 4.92 µM (inactive). For the same molecule, the GI50 in assay [7] is 3.53 µM (inactive); in [8], 4.01 µM (inactive); in assay [9], 2.31 µM (inactive); in assay [10], 2.58 µM (inactive); in [11] it was 6.04 µM (inactive); in assay [12], 3.47 µM (inactive). The GI50 in [13] is 2.64 µM (inactive); in assay [14] it was 3.11 µM (inactive); in assay [15], 3.96 µM (inactive); in assay [16], 17.1 µM (inactive); in assay [17], 6.18 µM (inactive); in assay [18] it was 3.47 µM (inactive). In addition, the GI50 was 3.83 µM (inactive) in assay [19] and 8.36 µM (inactive) in [20].
